According to patent publication US20240208961A1, “EIF4E INHIBITORS AND USES THEREOF” (PIC Therapeutics, Inc., priority 2022, published 2024):
pIC50: −log10 of the molar value. “And” between values parts separate entries of the source, which are not always exact repeats. Identical values can stand only once. Like-named read-outs stand apart in the source and are kept apart here. Blank lines part the entries; values can stand above or below the molecule they belong to.

How the values were obtained:
ZR-75-1 = assay: Cell viability assay, adherent cell line, 5 day Alamar Blue (Example 8): ZR-75-1; format: cell-based; conditions: Homo sapiens, 120 h, ZR-75-1, Breast Cancer Cell Viability
Protocol: Cell viability assays were performed on certain compounds of the disclosure, according to the following procedure.
Cell line specific media conditions used:
The procedure for adherent cell line compound screening was as follows:
• Cells were seeded in 96-well cell culture treated tissue culture plates: ZR-75-1, NIHOVCAR3, T47D, and LOVO cells 4000 cells/well; and HPAFII 3000 cell/well
Day 3: Compound Dilution and Dosing
• 5-fold serial dilution (8 point) of each compound in DMSO 0-25 mM in compound storage plates was prepared (stored at −80° C. if not to be used immediately). • Cells were rinsed with 1% FBS Media (appropriate to cell line as described above) and replaced with 87.5 μL media prior to dosing. HPAFII was screened in normal 10% FBS Media. • DMSO compound dilution series was diluted in 1% FBS media (appropriate to cell line as described above)—2 μL in 248 μL to give an 8× final concentration. • Cells were dosed 12.5 μL/well in triplicate to give final dose curved on cells 0-25 μM. • Media blank 100 μL/well×8 was set up. • All plates were incubated at 37° C.
Day 8: 5 Day Viability Assay
• Alamar Blue viability reagent was added (10 μL per well) and incubated for 3 hours at 37° C. prior to fluorescence detection (Ex560 nm/Em590 nm) on a Varioskan Lux multimode plate reader.
Results from cell viability assays are summarized in Table 23, wherein A represents IC50≤1 μM; B represents 1 μM<IC50≤8 μM; and C represents IC50>8 μM. Blank cells indicate that the compound was not tested in a particular assay.

[1] = Pharmacokinetic studies of certain compounds in female Balb/c mice (Example 5); format: in vivo; conditions: for concentration at 0.5 hr / concentration at 1 hr / concentration at 2 hr / concentration at 4 hr: BALB/c
Protocol: Pharmacokinetic studies were performed using Balb/c mice, 15-20 g, 6-9 weeks, female, N=9, purchased from Jihui Laboratory Animal Co. LTD. For compound I-29, Balb/c mice, 19-21 g, 9-11 weeks, female, N=9, were used. The mice were fasted overnight and fed at 4 h post dosing.
Animals were dosed via oral gavage (PO) or tail vein injection (IV) with compound. Sampling occurred at 0.083, 0.25, 0.5, 1, 2, 4, 8, and 24 h post dose (8 time points). The animals were restrained manually at the designated time points. Approx. […] of blood was taken from the animals via facial vein for semi-serial bleeding into tubes with K2EDTA. Blood samples were put on ice and centrifuged at 4° C. (2000 g, 5 min) to obtain plasma within 15 min after sample collection. Plasma samples were stored in dry ice temporarily and at approximately −70° C. until analysis.
For oral gavage, the compound was dosed as a suspension in 1% sodium carboxymethyl cellulose (CMC) and 0.2% Tween 80 in water. For 23.8 mg/kg and 30 mg/kg doses, 3 mg/mL was used; for 50 mg/kg doses, 5 mg/mL was used; and for 100 mg/kg doses, 10 mg/mL was used.
For IV administration, the compound was dosed as a solution in 5% DMSO, 5% Solutol HS15 and 90% saline. For 1 mg/kg and 1.48 mg/kg doses, 0.2 mg/mL was used.
Plasma samples were analyzed using LC-MS using a calibration curve of known concentrations.
The results of these studies are summarized in Tables 11-21 below and in FIGS. 2-8. […] BQL=below quantifiable limit for compound in female Balb/c mouse plasma samples. NA=not available. PK parameters were estimated by non-compartmental model using WinNonlin 8.2. If the adjusted rsq (linear regression coefficient of the concentration value on the terminal phase) was less than 0.9, T1/2 might not have been accurately estimated. F value was determined by the following equation: • If AUClast/AUCINF>80%:
F=(AUCINF-EX×DOSEIV)/(AUCINF-IV×DOSEEX)[…] • If AUClast/AUCINF<80% or AUCINF not available:
F=(AUClast-EX×DOSEIV)/(AUClast-IV×DOSEEX)*1000

[2] = mouse, plasma, I-2 PO 100 mg/kg

Plasma concentration Individual ([1]; I-2 PO 30 mg/kg, 0.083 hr, 30 mg/kg): 106 ng/mL and 211 ng/mL and 94.1 ng/mL
Plasma concentration Individual ([1]; I-2 PO 30 mg/kg, 0.25 hr, 30 mg/kg): 663 ng/mL and 622 ng/mL
Plasma concentration Individual ([1]; I-2 PO 30 mg/kg, 0.5 hr, 30 mg/kg): 1380 ng/mL and 1170 ng/mL
Plasma concentration Individual ([1]; I-2 PO 30 mg/kg, 1 hr, 30 mg/kg): 2110 ng/mL and 1590 ng/mL
Plasma concentration Individual ([1]; I-2 PO 30 mg/kg, 2 hr, 30 mg/kg): 2640 ng/mL and 2190 ng/mL
Plasma concentration Individual ([1]; I-2 PO 30 mg/kg, 4 hr, 30 mg/kg): 1600 ng/mL
Plasma concentration Individual ([1]; I-2 PO 30 mg/kg, 8 hr, 30 mg/kg): 233 ng/mL and 261 ng/mL
Plasma concentration Individual ([1]; I-2 PO 30 mg/kg, 24 hr, 30 mg/kg): 7.09 ng/mL and 5.63 ng/mL
Plasma concentration Individual ([1]; I-2 PO 100 mg/kg, 0.083 hr, 100 mg/kg): 406 ng/mL and 159 ng/mL and 182 ng/mL
Plasma concentration Individual ([1]; I-2 PO 100 mg/kg, 0.25 hr, 100 mg/kg): 1310 ng/mL and 2360 ng/mL and 885 ng/mL
Plasma concentration Individual ([1]; I-2 PO 100 mg/kg, 0.5 hr, 100 mg/kg): 3290 ng/mL and 2960 ng/mL
Plasma concentration Individual ([1]; I-2 PO 100 mg/kg, 1 hr, 100 mg/kg): 3010 ng/mL and 3120 ng/mL
Plasma concentration Individual ([1]; I-2 PO 100 mg/kg, 2 hr, 100 mg/kg): 4510 ng/mL and 3430 ng/mL
Plasma concentration Individual ([1]; I-2 PO 100 mg/kg, 4 hr, 100 mg/kg): 3380 ng/mL and 1660 ng/mL and 2310 ng/mL
Plasma concentration Individual ([1]; I-2 PO 100 mg/kg, 8 hr, 100 mg/kg): 914 ng/mL and 861 ng/mL
Plasma concentration Individual ([1]; I-2 PO 100 mg/kg, 24 hr, 100 mg/kg): 19.7 ng/mL and 18.8 ng/mL and 37.7 ng/mL
concentration at 0.5 hr ([1]; female, mouse, plasma, po, 30 mg/kg, I-2 PO 30 mg/kg, 0.5 hr, read-out: Plasma concentration Individual): 1160 ng/mL
concentration at 0.5 hr ([1]; female, mouse, plasma, po, 30 mg/kg, I-2 PO 30 mg/kg, 0.5 hr, read-out: Plasma concentration Mean): 1240 ng/mL
concentration at 1 hr ([1]; female, mouse, plasma, po, 30 mg/kg, I-2 PO 30 mg/kg, 1 hr, read-out: Plasma concentration Individual): 1700 ng/mL
concentration at 1 hr ([1]; female, mouse, plasma, po, 30 mg/kg, I-2 PO 30 mg/kg, 1 hr, read-out: Plasma concentration Mean): 1800 ng/mL
concentration at 2 hr ([1]; female, mouse, plasma, po, 30 mg/kg, I-2 PO 30 mg/kg, 2 hr, read-out: Plasma concentration Individual): 2150 ng/mL
concentration at 2 hr ([1]; female, mouse, plasma, po, 30 mg/kg, I-2 PO 30 mg/kg, 2 hr, read-out: Plasma concentration Mean): 2330 ng/mL
concentration at 4 hr ([1]; female, mouse, plasma, po, 30 mg/kg, I-2 PO 30 mg/kg, 4 hr, read-out: Plasma concentration Individual): 1340 ng/mL
concentration at 4 hr ([1]; female, mouse, plasma, po, 30 mg/kg, I-2 PO 30 mg/kg, 4 hr, read-out: Plasma concentration Mean): 1510 ng/mL
concentration at 0.083 h ([1]; female, Balb/c, mouse, plasma, po, 30 mg/kg, I-2 PO 30 mg/kg, 0.083 hr, read-out: Plasma concentration Mean): 137 ng/mL
concentration at 0.25 h ([1]; female, Balb/c, mouse, plasma, po, 30 mg/kg, I-2 PO 30 mg/kg, 0.25 hr, read-out: Plasma concentration Individual): 472 ng/mL
concentration at 0.25 h ([1]; female, Balb/c, mouse, plasma, po, 30 mg/kg, I-2 PO 30 mg/kg, 0.25 hr, read-out: Plasma concentration Mean): 586 ng/mL
concentration at 8 hr ([1]; female, Balb/c, mouse, plasma, po, 30 mg/kg, I-2 PO 30 mg/kg, 8 hr, read-out: Plasma concentration Individual): 244 ng/mL
concentration at 8 h ([1]; female, Balb/c, mouse, plasma, po, 30 mg/kg, I-2 PO 30 mg/kg, 8 hr, read-out: Plasma concentration Mean): 246 ng/mL
concentration at 24 h ([1]; female, Balb/c, mouse, plasma, po, 30 mg/kg, I-2 PO 30 mg/kg, 24 hr, read-out: Plasma concentration Individual): 4.28 ng/mL
concentration at 24 h ([1]; female, Balb/c, mouse, plasma, po, 30 mg/kg, I-2 PO 30 mg/kg, 24 hr, read-out: Plasma concentration Mean): 5.67 ng/mL
concentration at 0.083 h ([1]; female, Balb/c, mouse, plasma, po, 100 mg/kg, I-2 PO 100 mg/kg, 0.083 hr, read-out: Plasma concentration Mean): 249 ng/mL
concentration at 0.25 h ([1]; female, Balb/c, mouse, plasma, po, 100 mg/kg, I-2 PO 100 mg/kg, 0.25 hr, read-out: Plasma concentration Mean): 1520 ng/mL
concentration at 0.5 h ([1]; female, Balb/c, mouse, plasma, po, 100 mg/kg, I-2 PO 100 mg/kg, 0.5 hr, read-out: Plasma concentration Individual): 2800 ng/mL
concentration at 0.5 h ([1]; female, Balb/c, mouse, plasma, po, 100 mg/kg, I-2 PO 100 mg/kg, 0.5 hr, read-out: Plasma concentration Mean): 3020 ng/mL
concentration at 1 h ([1]; female, Balb/c, mouse, plasma, po, 100 mg/kg, I-2 PO 100 mg/kg, 1 hr, read-out: Plasma concentration Individual): 4550 ng/mL
concentration at 1 h ([1]; female, Balb/c, mouse, plasma, po, 100 mg/kg, I-2 PO 100 mg/kg, 1 hr, read-out: Plasma concentration Mean): 3560 ng/mL
concentration at 2 h ([1]; female, Balb/c, mouse, plasma, po, 100 mg/kg, I-2 PO 100 mg/kg, 2 hr, read-out: Plasma concentration Individual): 3810 ng/mL
concentration at 2 h ([1]; female, Balb/c, mouse, plasma, po, 100 mg/kg, I-2 PO 100 mg/kg, 2 hr, read-out: Plasma concentration Mean): 3920 ng/mL
concentration at 4 h ([1]; female, Balb/c, mouse, plasma, po, 100 mg/kg, I-2 PO 100 mg/kg, 4 hr, read-out: Plasma concentration Mean): 2450 ng/mL
concentration at 8 h ([1]; female, Balb/c, mouse, plasma, po, 100 mg/kg, I-2 PO 100 mg/kg, 8 hr, read-out: Plasma concentration Individual): 1080 ng/mL
concentration at 8 h ([1]; female, Balb/c, mouse, plasma, po, 100 mg/kg, I-2 PO 100 mg/kg, 8 hr, read-out: Plasma concentration Mean): 952 ng/mL
concentration at 24 h ([1]; female, Balb/c, mouse, plasma, po, 100 mg/kg, I-2 PO 100 mg/kg, 24 hr, read-out: Plasma concentration Mean): 25.4 ng/mL
AUC(0-inf) ([1]; mouse, plasma, I-2 PO 30 mg/kg): 12500 ng·h/mL
AUC(0-t) ([1]; mouse, plasma, I-2 PO 30 mg/kg): 12500 ng·h/mL
Cmax ([1]; mouse, plasma, I-2 PO 30 mg/kg): 2330 ng/mL
MRT inf ([1]; mouse, plasma, I-2 PO 30 mg/kg): 3.85 h
MRT last ([1]; mouse, plasma, I-2 PO 30 mg/kg): 3.81 h
Tmax ([1]; mouse, plasma, I-2 PO 30 mg/kg): 2 h
half-life ([1]; mouse, plasma, I-2 PO 30 mg/kg): 2.6 h
AUC(0-inf) [1, 2]: 27200 ng·h/mL
AUC(0-t) [1, 2]: 27100 ng·h/mL
Cmax [1, 2]: 3920 ng/mL
MRT inf [1, 2]: 4.73 h
MRT last [1, 2]: 4.63 h
Tmax [1, 2]: 2 h
half-life [1, 2]: 3.04 h
SMILES: CC(C)Cc1sc(Nc2ncc(-c3cccs3)cc2C(=O)O)nc1C1=CCCCC1 [Compound I-2]
pIC50 (ZR-75-1): ≥ 6.00

SMILES: CC(C)Cc1sc(Nc2ncc(-c3cccs3)cc2C(=O)O)nc1C(C)(C)C [Compound I-11]
pIC50 (ZR-75-1): ≥ 6.00
